From patent publication US11225505B2, “Antimicrobial polymyxin derivative compounds” (MONASH UNIVERSITY, priority 2015, dated 2022)
In brackets after ≈: the same amount, converted by molar mass. Like-named read-outs stand apart in the source and are kept apart here. Where a SMILES comes first, the peptide text is derived from it. Bridges are numbered along the chain shown (N, C = ends). [ ]: non-standard residue; d: D form. The star is where a group is joined. Propanoyl(3-indol-3-yl) = O=C(CCc1c[nH]c2ccccc12)*; X65 = O=C(c1cc(Br)ccn1)*; Dab = NCC[C@H](N)C(=O)O; X68 = O=C(c1coc(Br)c1)*; Abu = CC[C@H](N)C(=O)O; Dap = NC[C@H](N)C(=O)O

What was measured:
Type in all cases: cell-based
[1] = tested on: Acinetobacter baumannii ATCC 17978
Procedure, shortened: (§1)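 Lipopeptides (TFA salts) tested against Gram-negative strains by CLSI broth microdilution using cation-adjusted Mueller-Hinton broth; MIC recorded, polymyxin B sulphate as control.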

[2] = tested on: Acinetobacter baumannii FADDI-AB034
Procedure, shortened: as §1

[3] = tested on: Enterobacter cloacae FADDI-EC001
Procedure, shortened: (§2)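 The read-out is the MIC, obtained by CLSI broth microdilution (M100-S24) in cation-adjusted Mueller-Hinton broth. The compounds were lipopeptide TFA salts, and polymyxin B sulphate served as control.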

[4] = tested on: Enterobacter cloacae FADDI-EC003
Procedure, shortened: as §1

[5] = tested on: Enterobacter cloacae FADDI-EC006
Procedure, shortened: as §1

[6] = tested on: Klebsiella pneumoniae FADDI-KP022
Procedure, shortened: as §1

[7] = tested on: Klebsiella pneumoniae FADDI-KP032
Procedure, shortened: as §1

[8] = tested on: Klebsiella pneumoniae Kp BM1
Procedure, shortened: as §2

[9] = tested on: Pseudomonas aeruginosa ATCC 27853
Procedure, shortened: as §1

[10] = tested on: Pseudomonas aeruginosa FADDI-PA01
Procedure, shortened: as §1

[11] = tested on: Pseudomonas aeruginosa FADDI-PA022
Procedure, shortened: as §1

[12] = tested on: Pseudomonas aeruginosa FADDI-PA038
Procedure, shortened: as §1

[13] = tested on: Acinetobacter baumannii FADDI-AB030; experiment: microbe, parasite or virus in culture
Procedure, shortened: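 Lipopeptide TFA salts tested against the multidrug-resistant clinical isolate by CLSI (M100-S24) broth microdilution in cation-adjusted Mueller-Hinton broth, with polymyxin B sulphate as control; MIC read.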

Compound	Minimum inhibitory concentration ([1]; ATCC 17978) [µg/mL]	Minimum inhibitory concentration ([2]; FADDI-AB034) [µg/mL]	Minimum inhibitory concentration ([3]; FADDI-EC001) [µg/mL]	Minimum inhibitory concentration ([4]; FADDI-EC003) [µg/mL]	Minimum inhibitory concentration ([5]; FADDI-EC006) [µg/mL]	Minimum inhibitory concentration ([6]; FADDI-KP022) [µg/mL]	Minimum inhibitory concentration ([7]; FADDI-KP032) [µg/mL]	Minimum inhibitory concentration ([8]; Kp BM1) [µg/mL]	Minimum inhibitory concentration ([9]; ATCC 27853) [µg/mL]	Minimum inhibitory concentration ([10]; FADDI-) [µg/mL]	Minimum inhibitory concentration ([11]; FADDI-PA022) [µg/mL]	Minimum inhibitory concentration ([12]; FADDI-PA038) [µg/mL]	Minimum inhibitory concentration ([13]; FADDI-AB030) [µg/mL]	further results
CC[C@@H]1NC(=O)[C@@H](CC(C)C)NC(=O)[C@H](CCN)NC(=O)[C@@H](NC(=O)[C@H](CN)NC(=O)[C@@H](NC(=O)[C@H](CCN)NC(=O)c2cc(Br)ccn2)[C@@H](C)O)CCNC(=O)[C@H]([C@@H](C)O)NC(=O)[C@H](CCN)NC(=O)[C@H](CCN)NC1=O [Compound 102] (X65-[Dab]T[Dap][Dab][Dab][dL][Abu][Dab][Dab]T; lactam 4-C)	0.5 (≈ 0.427 µM)	0.5 (≈ 0.427 µM)	<0.125	<0.125	<0.125	<0.125	0.25 (≈ 0.213 µM)	<0.125	0.5 (≈ 0.427 µM)	0.5 (≈ 0.427 µM)	0.5 (≈ 0.427 µM)	1 (≈ 0.854 µM)	0.25 (≈ 0.213 µM)	
CC[C@@H]1NC(=O)[C@@H](CC(C)C)NC(=O)[C@H](CCN)NC(=O)[C@@H](NC(=O)[C@H](CN)NC(=O)[C@@H](NC(=O)[C@H](CCN)NC(=O)c2coc(Br)c2)[C@@H](C)O)CCNC(=O)[C@H]([C@@H](C)O)NC(=O)[C@H](CCN)NC(=O)[C@H](CCN)NC1=O [Compound 103] (X68-[Dab]T[Dap][Dab][Dab][dL][Abu][Dab][Dab]T; lactam 4-C)	1 (≈ 0.862 µM)	1 (≈ 0.862 µM)	0.5 (≈ 0.431 µM)	0.5 (≈ 0.431 µM)	0.5 (≈ 0.431 µM)	<0.125	0.5 (≈ 0.431 µM)	0.5 (≈ 0.431 µM)	0.5 (≈ 0.431 µM)	0.5 (≈ 0.431 µM)	0.5 (≈ 0.431 µM)	2 (≈ 1.72 µM)	1 (≈ 0.862 µM)	
CC[C@@H]1NC(=O)[C@@H](CC(C)C)NC(=O)[C@H](CCN)NC(=O)[C@@H](NC(=O)[C@H](CN)NC(=O)[C@@H](NC(=O)[C@H](CCN)NC(=O)CCc2c[nH]c3ccccc23)[C@@H](C)O)CCNC(=O)[C@H]([C@@H](C)O)NC(=O)[C@H](CCN)NC(=O)[C@H](CCN)NC1=O [Compound 104] ({Propanoyl(3-indol-3-yl)}-[Dab]T[Dap][Dab][Dab][dL][Abu][Dab][Dab]T; lactam 4-C)	0.5 (≈ 0.432 µM)	0.5 (≈ 0.432 µM)	<0.125	<0.125	0.25 (≈ 0.216 µM)	<0.125	<0.125	<0.125	0.25 (≈ 0.216 µM)	<0.125	0.25 (≈ 0.216 µM)	0.5 (≈ 0.432 µM)	0.5 (≈ 0.432 µM)	
Polymyxin B [reference compound]														Minimum inhibitory concentration ([1]; A. baumannii ATCC 17978, CAMHB broth microdilution): 1 µg/mL; Minimum inhibitory concentration ([2]; A. baumannii FADDI-AB034, CAMHB broth microdilution): 0.5 µg/mL; Minimum inhibitory concentration ([3]; E. cloacae FADDI-EC001, CAMHB broth microdilution): 0.25 µg/mL; Minimum inhibitory concentration ([4]; E. cloacae FADDI-EC003, CAMHB broth microdilution): 0.5 µg/mL; Minimum inhibitory concentration ([5]; E. cloacae FADDI-EC006, CAMHB broth microdilution): 0.5 µg/mL; Minimum inhibitory concentration ([6]; K. pneumoniae FADDI-KP022, CAMHB broth microdilution): <0.125 µg/mL; Minimum inhibitory concentration ([7]; K. pneumoniae FADDI-KP032, CAMHB broth microdilution): <0.125 µg/mL; Minimum inhibitory concentration ([8]; K. pneumoniae Kp BM1, CAMHB broth microdilution): 0.5 µg/mL; Minimum inhibitory concentration ([9]; P. aeruginosa ATCC 27853, CAMHB broth microdilution): 1 µg/mL; Minimum inhibitory concentration ([10]; P. aeruginosa FADDI-PA01, CAMHB broth microdilution): 0.5 µg/mL; Minimum inhibitory concentration ([11]; P. aeruginosa FADDI-PA022, CAMHB broth microdilution): 1 µg/mL; Minimum inhibitory concentration ([12]; P. aeruginosa FADDI-PA038, CAMHB broth microdilution): 1 µg/mL; Minimum inhibitory concentration ([13]; A. baumannii FADDI-AB030, CAMHB broth microdilution): 0.25 µg/mL; Minimum inhibitory concentration ([13]; clinically used antibiotics, clinical isolate A. baumannii FADDI-AB030): 0.25 µg/mL
